The values below are quoted from earlier work in patent US20240165081A1, “COMPOSITIONS AND METHODS FOR TREATMENT OF INSOMNIA” (priority 2022, published 2024).

In this data set the target is adenosine A2A receptor (Homo sapiens, UniProt P29274).
Sequence of adenosine A2A receptor (P29274 whole entry): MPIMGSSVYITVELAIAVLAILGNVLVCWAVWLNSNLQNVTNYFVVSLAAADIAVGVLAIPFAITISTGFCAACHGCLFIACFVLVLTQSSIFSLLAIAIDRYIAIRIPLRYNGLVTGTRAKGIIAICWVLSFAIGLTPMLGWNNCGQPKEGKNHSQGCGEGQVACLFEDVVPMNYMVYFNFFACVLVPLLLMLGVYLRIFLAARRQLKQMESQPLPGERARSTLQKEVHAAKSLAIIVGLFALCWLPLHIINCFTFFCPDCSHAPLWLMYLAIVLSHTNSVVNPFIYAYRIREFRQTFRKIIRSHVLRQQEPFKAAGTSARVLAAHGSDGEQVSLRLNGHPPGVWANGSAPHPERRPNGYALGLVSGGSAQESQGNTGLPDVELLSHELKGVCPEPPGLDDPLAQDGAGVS

Turning to `C=C(C)C1CC=C(C)CC1` [D-limonene, 4-isopropenyl-1-methylcyclohexene], the “binding to the adenosine A2A receptor” value was “found to bind to the adenosine A2A receptor”.
